Measurements published in article PMC10123561 (Signal Transduction and Targeted Therapy, 2023).
Values joined by “and” are separate entries in the source; they are usually repeats but may differ in a detail not shown here. Equal values may be shown once. “Also recorded” adds a separate entry of the source. Where a name gives a salt, the structure may show the parent alone. Read-outs that look alike come from different tables or passages of the source.

What was measured:
M^pro = settings: read-out: Activity: IC50; cited from earlier work
wild type SARS-CoV-2 = assay: microbe, parasite or virus in culture; assay type: cell-based; settings: mean ± sd
SARS-CoV-2 [1] = settings: cited from earlier work
SARS-CoV-2 M^pro = SARS-CoV-2 M^pro (Severe acute respiratory syndrome coronavirus 2, UniProt P0DTD1); assay: biochemical
SARS-CoV-2 PL^pro = SARS-CoV-2 PL^pro (Severe acute respiratory syndrome coronavirus 2, UniProt P0DTD1); assay: SARS-CoV-2 PL^pro inhibition assay; assay type: biochemical; settings: read-out: inhibition rate against papain-like protease (PL^pro)
SARS-CoV-2 RdRp complex = SARS-CoV-2 RdRp complex (Severe acute respiratory syndrome coronavirus 2, UniProt P0DTD1); assay: biochemical
[2] = tested on: SARS-CoV-2 strain 20SF107; assay type: in vivo, rhesus macaques
SARS-CoV-2 [3] = assay: Randomized open-label clinical trial in mild/moderate COVID-19 patients, efficacy; assay type: in vivo
[4] = male, rhesus monkey, in vivo
[5] = human, in vivo
cyclophilin A = biological target: cyclophilin A; set-up: method as in PMID 34677780; settings: cited from earlier work
cathepsin L = settings: read-out: IC50 against cathepsin L; cited from earlier work
[6] = tested on: SARS-CoV-2 spike mediated cell fusion; settings: at 10 μM; cited from earlier work
inflammatory cytokines = settings: at 2.5 μM; cited from earlier work
[7] = rats, 4 h after oral administration; cited from earlier work
[8] = cited from earlier work; for AUC0-∞: healthy human volunteers
[9] = HIV-infected patients; cited from earlier work
[10] = cited from earlier work
in vitro = settings: African green monkey
[11] = twice daily, cited from earlier work
[12] = Lung distribution study in mouse; settings: male, ICR, po
[13] = Pharmacokinetics in healthy rhesus macaques after nasogastric administration; settings: 200 mg/kg nasogastric; for Cmax / AUC / MRT / half-life: rhesus monkey, plasma, 200 mg/kg
[14] = Severe acute respiratory syndrome coronavirus 2, Vero C1008, Vero E6 cells
[15] = Severe acute respiratory syndrome coronavirus 2, Calu-3 cells
[16] = log-rank analysis, N = 5, NE = Not Evaluable

CC(C)(C)NC(=O)[C@@H](c1cccnc1)N(C(=O)c1ccco1)c1ccc(C(C)(C)C)cc1 [0EN]
IC50 (M^pro): 4.8 µM

CCOC(=O)CC[C@H](C[C@@H]1CCNC1=O)NC(=O)[C@H](CC=C(C)C)CC(=O)[C@@H](NC(=O)[C@H](CO)NC(=O)OC(C)(C)C)C(C)C [CYV]
IC50 (M^pro): 80 µM

Cc1cc(S(=O)(=O)c2c([N+](=O)[O-])cc(C(F)(F)F)cc2[N+](=O)[O-])c(Cl)cc1Cl [D3F]
IC50 (M^pro): 0.3 µM

O=C(Sc1n[nH]c(C(F)(F)F)n1)c1ccc(C#Cc2ccccc2)o1 [F3F]
IC50 (M^pro): 3 µM

CCC(CC)COC(=O)[C@H](C)N[P@](=O)(OC[C@H]1O[C@@](C#N)(c2ccc3c(N)ncnn23)[C@H](O)[C@@H]1O)Oc1ccccc1 [Remdesivir]
EC50 (wild type SARS-CoV-2; [14]): 1.01 ± 0.13 µM | EC50 (wild type SARS-CoV-2; [15]): 1.11 ± 0.17 µM | reduction of recovery time (SARS-CoV-2 [1]; hospitalized adults): 5 days

CC(C)C(=O)OC[C@H]1O[C@@H](n2ccc(NO)nc2=O)[C@H](O)[C@@H]1O [molnupiravir]
decrease of the risk of hospitalization or death (SARS-CoV-2 [1]; MOVe-OUT, non-hospitalized patients): 48%

Cc1c(O)cccc1C(=O)N[C@@H](CSc1ccccc1)[C@H](O)CN1C[C@H]2CCCC[C@H]2C[C@H]1C(=O)NC(C)(C)C [nelfinavir, Nelfinavir Mesylate]
IC50 (SARS-CoV-2 M^pro; IC50 against SARS-CoV-2 M^pro): 23 µM and > 20 µM | IC50 (SARS-CoV-2 M^pro; IC50 against SARS-CoV-2 main protease (M^pro)): 8.26 µM | EC50 (wild type SARS-CoV-2; [14]): 2.93 ± 0.32 µM | EC50 (wild type SARS-CoV-2; [15]): 1.86 ± 0.26 µM | inhibition at 100 µM (SARS-CoV-2 PL^pro): 33.3 ± 2.47% | IC50 (SARS-CoV-2 RdRp complex): 112 ± 8.2 µM | body weight change compared with control monkeys ([2]; 200 mg/kg prophylactic, twice daily): not significant | body temperature compared with vehicle control monkeys ([2]; 200 mg/kg prophylactic, twice daily, […]): significantly lower | viral loads in extrapulmonary tissues, e.g. colon and heart, compared with control group ([2]; […], no statistical difference): increasing trends | reduction of viral replication in the lungs ([2]; at necropsy, prophylactic treatment): nearly three orders of magnitude; also recorded: approximately three orders of magnitude | reduction of virus RNA in lung (left lower lobe) compared to vehicle-treated monkeys ([2]; rhesus monkey, in vivo): 2.88 log | viral load in nasal swabs compared with control group ([2]; rhesus monkey, in vivo): Significant reductions; also recorded: significantly reduced; also recorded: significantly lower | viral load in rectal (anal) swabs compared with control group ([2]; rhesus monkey, in vivo): Significant reductions; also recorded: significantly reduced; also recorded: significantly lower | viral load in throat swabs compared with control group ([2]; rhesus monkey, in vivo): without significance | virus RNA in kidney samples ([2]; rhesus monkey, in vivo): could not be detected | proportion of subjects whose respiratory specimens were negative for SARS-CoV-2 RNA (SARS-CoV-2 [3]; 7th day of treatment, N = 19): 31.6% | proportion of cases with fever (SARS-CoV-2 [3]; 9/19): 47.4% | chest CT results of moderate COVID-19 (SARS-CoV-2 [3]; 14th day of treatment): one patient was abnormal and had no clinical significance | proportion of subjects whose respiratory specimens were negative for SARS-CoV-2 RNA (SARS-CoV-2 [3]; 14th day of treatment, N = 19): 68.4% | progression to severe or critical pneumonia (SARS-CoV-2 [3]; 14th day of treatment, patients with mild COVID-19 (N = 5)): no subjects | TTCR time (time to clinical recovery) (SARS-CoV-2 [3]; N = 5, control 11.0 days): 7.0 days | shortening of duration of fever time versus control group (SARS-CoV-2 [3]; P = 0.014): 3.8 days | shortening of median time for TTCR (SARS-CoV-2 [3]; P = 0.899): 4.0 days | average fever days (duration of fever time) in patients with fever (SARS-CoV-2 [3]; control 6.6 ± 4.1 days, P = 0.014): 2.8 days and 2.8 ± 1.6 days | progression of subjects with mild disease to pneumonia (SARS-CoV-2 [3]; day 7 of treatment): did not progress to pneumonia | time of TTCR, 25%(95%CI) (SARS-CoV-2 [3]; [16]): 4.0(1.0~ NE) d | time of TTCR, 50%(95%CI) (SARS-CoV-2 [3]; [16]): 7.0(1.0~ NE) d | time to convert to negative throat swab, 25%(95%CI) (SARS-CoV-2 [3]; log-rank analysis, N = 19): 5.0(1.0~9.0) d | time to convert to negative throat swab, 50%(95%CI) (SARS-CoV-2 [3]; log-rank analysis, N = 19): 9.0(5.0~11.0) d | time to convert to negative throat swab, 75%(95%CI) (SARS-CoV-2 [3]; log-rank analysis, N = 19): 12.0(9.0~22.0) d | shortening of duration of viral shedding versus control group (SARS-CoV-2 [3]; median, P = 0.055): 5.5 days | median time to convert to negative throat swab of SARS-CoV-2 (duration of viral shedding) (SARS-CoV-2 [3]; nelfinavir 1250 mg every 12 h, N = 19, control 14.5 days, P = 0.055): 9.0 days | selectivity index (SI) (Vero E6 cells): 17.59 | plasma concentration in infected relative to healthy rhesus macaques [4]: around 1/6 | trough plasma concentration (Ctrough) [4]: 0.26 µM | plasma concentration at 5 h after dosing (C5h), average ([4]; 200 mg/kg): 0.55 µM | cases of grade 1 adverse events [5]: 15 cases | death of illness [5]: No patients died | grade of adverse events during the trial [5]: all grade 1 | number of patients with grade 1 adverse events [5]: 10 patients | patients with abnormal sitting blood pressure, respiratory rate and pulse [5]: no clinically significant patients | proportion of patients with grade 1 adverse events [5]: 52.6% | Kd (cyclophilin A): 0.94 µM | IC50 (cathepsin L): 18 µM | inhibition of SARS-CoV-2 spike mediated cell fusion [6]: completely inhibit | inhibition of inflammatory cytokines in vitro (inflammatory cytokines): successfully inhibit | lung-to-plasma ratio [7]: 3.24 | AUC0-∞ ([8]; dosage of 100 mg): 1250 ± 230 ng·h/mL | AUC0-∞ ([8]; dosage of 800 mg): 22208 ± 6306 ng·h/mL | plasma Ctrough,Morning ([8]; human, 1250 mg BID, ref VIRACEPT FDA Package Insert Reference ID: 3986049): 3.87 µM | Cmax ([8]; human, 1250 mg BID, ref VIRACEPT FDA Package Insert Reference ID: 3986049, read-out: plasma Cmax): 7.04 µM | Cmax in PBMCs relative to plasma [9]: ~ 15 fold | cellular accumulation in PBMCs relative to plasma [9]: 5.30 fold | concentration in the lung epithelial lining fluid versus plasma [10]: comparable to that in plasma | proportion of patients with detectable drug in bronchoalveolar lavage (BAL) fluid [10]: 100% | lung distribution in patients relative to plasma ([10]; human, in vivo): approximately three times as high as that of plasma | CC50 (in vitro): 51.6 µM | maximum tolerated dosage (MTD) ([11]; adults with solid tumors): 3125 mg | maximum tolerated dosage (MTD) ([11]; liposarcoma, MTD not reached): > 4250 mg | Kp [12]: 2 to 3 | Kp at 0.5 h ([12]; 250 mg/kg): 2.08 ± 0.5 | Kp at 1 h ([12]; 250 mg/kg): 2.35 ± 0.34 | Kp at 3 h ([12]; 250 mg/kg): 2.24 ± 0.59 | Kp at 6 h ([12]; 250 mg/kg): 1.81 ± 0.19 | Kp at 9 h ([12]; 250 mg/kg): 2.33 ± 0.28 | Kp at 0.5 h ([12]; 750 mg/kg): 2.07 ± 0.42 | Kp at 1 h ([12]; 750 mg/kg): 3.11 ± 0.82 | Kp at 3 h ([12]; 750 mg/kg): 2.83 ± 0.33 | Kp at 6 h ([12]; 750 mg/kg): 3.22 ± 0.63 | Kp at 9 h ([12]; 750 mg/kg): 2.61 ± 0.08 | Tpeak ([13]; Monkey 1, healthy): 6.00 h | Tpeak ([13]; Monkey 2, healthy): 4.00 h | Cmax ([13]; oral, average maximum plasma concentration (Cmax), two healthy rhesus macaques): 3.2 µM | AUC ([13]; po, AUCon, Monkey 1, healthy): 28.4 µM·h | AUC ([13]; po, AUCon, Monkey 2, healthy): 10.6 µM·h | AUC ([13]; po, AUCtot, Monkey 1, healthy): 28.4 µM·h | AUC ([13]; po, AUCtot, Monkey 2, healthy): 10.7 µM·h | Cmax ([13]; po, Cmax, Monkey 1, healthy): 5.33 µM | Cmax ([13]; po, Cmax, Monkey 2, healthy): 1.07 µM | MRT ([13]; po, Monkey 1, healthy): 7.25 h | MRT ([13]; po, Monkey 2, healthy): 12 h | half-life ([13]; po, t1/2, Monkey 1, healthy): 4.46 h | half-life ([13]; po, t1/2, Monkey 2, healthy): 6.92 h | time at which Cmax was achieved after dosing ([13]; two healthy rhesus macaques): 5 h

CC(C)(C)[C@H](NC(=O)C(F)(F)F)C(=O)N1C[C@H]2[C@@H]([C@H]1C(=O)N[C@H](C#N)C[C@@H]1CCNC1=O)C2(C)C [nirmatrelvir]
decrease of the probability of hospitalization or mortality (SARS-CoV-2 [1]; EPIC-HR, non-hospitalized adults at high risk): 89% | rate of hospitalization owing to COVID-19 among treated patients (SARS-CoV-2 [1]; patients aged 40 to 64 years, Israel, omicron, untreated 15.8): 15.2 instances per 100,000 person-days
